Measurements: patent EP4273147A1, “SUBSTITUTED SPIROLACTAMS, SALTS THEREOF AND THEIR USE AS HERBICIDALLY ACTIVE SUBSTANCES” (Bayer Aktiengesellschaft, priority 2022, dated 2023)

How the values were obtained:
ABUTH [1] = assay: Herbicidal pre-emergence action (Table A1); format: in vivo, Abutilon theophrasti; settings: application rate 1280 g/ha; visual grading after ca. 3 weeks vs untreated controls (100% = plants have died off, 0% = as control plants)
In short: (§1)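 Weed seeds are sown into sandy loam in pots and covered with soil, with two species per pot, one monocot and one dicot.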

ECHCG [2] = assay: Herbicidal pre-emergence action (Table A2); format: in vivo, Echinochloa crus-galli; settings: application rate 320 g/ha; visual grading after ca. 3 weeks
In short: as §1

LOLRI [3] = assay: Herbicidal pre-emergence action (Table A3); format: in vivo, Lolium rigidum; settings: application rate 320 g/ha; visual grading after ca. 3 weeks
In short: as §1

MATIN [4] = assay: Herbicidal pre-emergence action (Table A4); format: in vivo, Matricaria inodora; settings: application rate 320 g/ha; visual grading after ca. 3 weeks
In short: as §1

SETVI [5] = assay: Herbicidal pre-emergence action (Table A5); format: in vivo, Setaria viridis; settings: application rate 1280 g/ha; visual grading after ca. 3 weeks
In short: as §1

STEME = assay: Herbicidal pre-emergence action (Table A6); format: in vivo, Stellaria media; settings: application rate 320 g/ha; visual grading after ca. 3 weeks
In short: as §1

POAAN = assay: Herbicidal pre-emergence action (Table A7); format: in vivo, Poa annua; settings: application rate 320 g/ha; visual grading after ca. 3 weeks
In short: as §1

AMARE = assay: Herbicidal pre-emergence action (Table A8); format: in vivo, Amaranthus retroflexus; settings: application rate 1280 g/ha; visual grading after ca. 3 weeks vs untreated controls (100% = plants have died off, 0% = as control plants)
In short: as §1

ALOMY [6] = assay: Herbicidal pre-emergence action (Table A9); format: in vivo, Alopecurus myosuroides; settings: application rate 1280 g/ha; visual grading after ca. 3 weeks
In short: as §1

KCHSC [7] = assay: Herbicidal pre-emergence action (Table A10); format: in vivo, Kochia scoparia; settings: application rate 320 g/ha; visual grading after ca. 3 weeks
In short: as §1

VERPE [8] = assay: Herbicidal pre-emergence action (Table A11); format: in vivo, Veronica persica; settings: application rate 1280 g/ha; visual grading after ca. 3 weeks
In short: as §1

DIGSA [9] = assay: Herbicidal pre-emergence action (Table A12); format: in vivo, Digitaria sanguinalis; settings: application rate 320 g/ha; visual grading after ca. 3 weeks
In short: as §1

ABUTH [10] = assay: Herbicidal post-emergence action (Table B1); format: in vivo, Abutilon theophrasti; settings: application rate 1280 g/ha; treated at one-leaf stage; rated visually after about 3 weeks vs untreated controls (100% = plants have died, 0% = like control plants)
In short: (§2)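 Visual rating of activity versus untreated plants about 3 weeks after treatment: 0% means no difference from controls, 100% means complete kill. Test weeds were raised from seed in sandy loam under controlled greenhouse conditions and sprayed at the one-leaf stage.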

ECHCG [11] = assay: Herbicidal post-emergence action (Table B3); format: in vivo, Echinochloa crus-galli; settings: application rate 1280 g/ha; rated visually after about 3 weeks
In short: as §2

KCHSC [12] = assay: Herbicidal post-emergence action (Table B4); format: in vivo, Kochia scoparia; settings: application rate 1280 g/ha; rated visually after about 3 weeks
Description: (§3) Seeds of mono- and dicotyledonous weed plants were placed in plastic pots in sandy loam soil (doubly sown with in each case one species of mono- or dicotyledonous weed plants per pot), covered with soil and cultivated in a greenhouse under controlled growth conditions. 2 to 3 weeks after sowing, the test plants were treated at the one-leaf stage. […] After the test plants had been kept in the greenhouse under optimum growth conditions for about 3 weeks, the activity of the preparations was rated visually in comparison to untreated controls. For example, 100% activity = the plants have died, 0% activity = like control plants.

LOLRI [13] = assay: Herbicidal post-emergence action (Table B5); format: in vivo, Lolium rigidum; settings: application rate 1280 g/ha; rated visually after about 3 weeks
Description: as §3

MATIN [14] = assay: Herbicidal post-emergence action (Table B6); format: in vivo, Matricaria inodora; settings: application rate 1280 g/ha; rated visually after about 3 weeks
In short: as §2

SETVI [15] = assay: Herbicidal post-emergence action (Table B8); format: in vivo, Setaria viridis; settings: application rate 1280 g/ha
In short: as §2

VERPE [16] = assay: Herbicidal post-emergence action (Table B10); format: in vivo, Veronica persica; settings: application rate 1280 g/ha
In short: as §2

DIGSA [17] = assay: Herbicidal post-emergence action (Table B12); format: in vivo, Digitaria sanguinalis; settings: application rate 1280 g/ha
Description: as §3

ABUTH [18] = assay: Herbicidal pre-emergence action, section C (Table C1); format: in vivo, Abutilon theophrasti; settings: application rate 320 g/ha; visual grading after ca. 3 weeks
ALOMY [19] = assay: Herbicidal pre-emergence action, section C (Table C2); format: in vivo, Alopecurus myosuroides; settings: application rate 80 g/ha; visual grading after ca. 3 weeks
Description: (§5) Seeds of mono- and dicotyledonous weed plants and crop plants were sown, in plastic or organic planting pots, in sandy loam and covered with soil. The compounds according to the invention, formulated in the form of wettable powders (WP) or as emulsifiable concentrates (EC), were applied to the surface of the covering soil as aqueous suspension or emulsion, with the addition of 0.5% of an additive, at an application rate of 600 1 of water/ha (converted). Following treatment, the pots were placed in a greenhouse and kept under optimum growth conditions for the test plants.

DIGSA [20] = assay: Herbicidal pre-emergence action, section C (Table C5); format: in vivo, Digitaria sanguinalis; settings: application rate 80 g/ha; visual grading after ca. 3 weeks
ECHCG [21] = assay: Herbicidal pre-emergence action, section C (Table C6); format: in vivo, Echinochloa crus-galli; settings: application rate 80 g/ha; visual grading after ca. 3 weeks
LOLRI [22] = assay: Herbicidal pre-emergence action, section C (Table C7); format: in vivo, Lolium rigidum; settings: application rate 80 g/ha; visual grading after ca. 3 weeks
MATIN [23] = assay: Herbicidal pre-emergence action, section C (Table C8); format: in vivo, Matricaria inodora; settings: application rate 320 g/ha; visual grading after ca. 3 weeks
Description: as §5

SETVI [24] = assay: Herbicidal pre-emergence action, section C (Table C10); format: in vivo, Setaria viridis; settings: application rate 80 g/ha; visual grading after ca. 3 weeks
VERPE [25] = assay: Herbicidal pre-emergence action, section C (Table C11); format: in vivo, Veronica persica; settings: application rate 80 g/ha; visual grading after ca. 3 weeks
VIOTR = assay: Herbicidal pre-emergence action, section C (Table C12); format: in vivo, Viola tricolor; settings: application rate 80 g/ha; visual grading after ca. 3 weeks
ZEAMX [26] = assay: Pre-emergence effects on crop plants (Table D1); format: in vivo, Zea mays; settings: crop plant; application rate 80 g/ha; visual grading after ca. 3 weeks
Description: Seeds of mono- and dicotyledonous weed plants and crop plants were sown, in plastic or organic planting pots, in sandy loam and covered with soil. The compounds according to the invention, formulated in the form of wettable powders (WP) or as emulsifiable concentrates (EC), were applied to the surface of the covering soil as aqueous suspension or emulsion, with the addition of 0.5% of an additive, at an application rate of 600 1 of water/ha (converted).
Following treatment, the pots were placed in a greenhouse and kept under optimum growth conditions for the test plants.

ALOMY [27] = assay: Herbicidal post-emergence action, section E (Table E2); format: in vivo, Alopecurus myosuroides; settings: application rate 320 g/ha; assessed visually after ca. 3 weeks
Text: (§4) 2 to 3 weeks after sowing, the test plants were sprayed in the single-leaf stage.

ECHCG [28] = assay: Herbicidal post-emergence action, section E (Table E5); format: in vivo, Echinochloa crus-galli; settings: application rate 320 g/ha; assessed visually after ca. 3 weeks
Text: as §4

VERPE [29] = assay: Herbicidal post-emergence action, section E (Table E9); format: in vivo, Veronica persica; settings: application rate 320 g/ha; assessed visually after ca. 3 weeks
Text: as §4

ZEAMX [30] = assay: Post-emergence effects on crop plants (Table F1); format: in vivo, Zea mays; settings: application rate 80 g/ha, crop plant ZEAMX
Text: as §4

TRZAS = assay: Post-emergence effects on crop plants (Table F2); format: in vivo, Triticum aestivum; settings: application rate 320 g/ha, crop plant TRZAS
Text: as §4

ORYZA [31] = assay: Post-emergence effects on crop plants (Table F3); format: in vivo, Oryza sativa; settings: application rate 320 g/ha, crop plant ORYZA
Text: as §4

GLXMA = assay: Post-emergence effects on crop plants (Table F4); format: in vivo, Glycine max; settings: application rate 80 g/ha, crop plant GLXMA
Text: as §4

BRSNW = assay: Post-emergence effects on crop plants (Table F5); format: in vivo, Brassica napus; settings: application rate 320 g/ha, crop plant BRSNW
Text: as §4

ORYZA [32] = assay: Pre-emergence effects on crop plants (Table D3); settings: crop plant; application rate 80 g/ha; visual grading after ca. 3 weeks

pre-emergence activity against ZEAMX (ZEAMX [26]): 0%
pre-emergence activity against ORYZA (ORYZA [32]): 0%
Structure (SMILES): O=C1N(Cc2cccc(F)c2F)CCC12CCCN(Cc1c(F)cccc1F)C2=O (racemic) [I-015]
pre-emergence activity against ABUTH (ABUTH [1]): 90%
pre-emergence activity against ECHCG (ECHCG [2]): 100%
pre-emergence activity against LOLRI (LOLRI [3]): 100%
pre-emergence activity against MATIN (MATIN [4]): 90%
pre-emergence activity against SETVI (SETVI [5]): 100%
pre-emergence activity against STEME (STEME): 90%
pre-emergence activity against POAAN (POAAN): 100%
pre-emergence activity against AMARE (AMARE): 90%
pre-emergence activity against ALOMY (ALOMY [6]): 90%
pre-emergence activity against KCHSC (KCHSC [7]): 90%
pre-emergence activity against VERPE (VERPE [8]): 90%
pre-emergence activity against DIGSA (DIGSA [9]): 100%
post-emergence activity against ABUTH (ABUTH [10]): 90%
post-emergence activity against ECHCG (ECHCG [11]): 90%
post-emergence activity against KCHSC (KCHSC [12]): 90%
post-emergence activity against LOLRI (LOLRI [13]): 90%
post-emergence activity against MATIN (MATIN [14]): 90%
post-emergence activity against SETVI (SETVI [15]): 90%
post-emergence activity against VERPE (VERPE [16]): 90%
post-emergence activity against DIGSA (DIGSA [17]): 90%
pre-emergence activity against ABUTH (ABUTH [18]): 90%
pre-emergence activity against ALOMY (ALOMY [19]): 90%
pre-emergence activity against DIGSA (DIGSA [20]): 90%
pre-emergence activity against ECHCG (ECHCG [21]): 100%
pre-emergence activity against LOLRI (LOLRI [22]): 100%
pre-emergence activity against MATIN (MATIN [23]): 90%
pre-emergence activity against SETVI (SETVI [24]): 90%
pre-emergence activity against VERPE (VERPE [25]): 90%
pre-emergence activity against VIOTR (VIOTR): 90%
post-emergence activity against ALOMY (ALOMY [27]): 80%
post-emergence activity against ECHCG (ECHCG [28]): 90%
post-emergence activity against VERPE (VERPE [29]): 80%
post-emergence activity against ZEAMX (ZEAMX [30]): 0%
post-emergence activity against TRZAS (TRZAS): 0%
post-emergence activity against ORYZA (ORYZA [31]): 0%
post-emergence activity against GLXMA (GLXMA): 20%
post-emergence activity against BRSNW (BRSNW): 0%
